Here are results for two compounds from patent US20120220581A1, “IMIDAZO[1,2-b]PYRIDAZINE DERIVATIVES AND THEIR USE AS PDE10 INHIBITORS” (Janssen-Cilag, S.A., priority 2009, published 2012).

One may read the ED50 as the midpoint of the dose-response relation. Lower therefore signals an effect at a small dose.

In assay [1] the target is other members of the PDE family (Homo sapiens, UniProt O00408). The assay is described as follows: In vitro PDE selectivity assay (SPA), other members of the PDE family (protocols in Table A). In kind it is biochemical. Conditions: hPDE2A; read-out: PDE 2A (expressed as pIC50) (converted). The method in brief:
(§1)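 Inhibition of each PDE isoform was measured by scintillation proximity assay with ³H-cyclic nucleotide substrate, using incubation buffer, substrate concentration, incubation time and stop solution adapted per isoform. Compounds were tested in dose-response against 1% DMSO controls and enzyme-free blanks. IC50 came from a least-squares fit of blank-subtracted % of control versus concentration.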

The target in assay [2] is other members of the PDE family (Homo sapiens, UniProt O76083). The assay is described as above. The format is biochemical. Conditions: hPDE9A; read-out: PDE 9A (expressed as pIC50) (converted). In a few lines:
as §1

Assay [3] deals with other members of the PDE family (Homo sapiens, UniProt Q13946). The description is as above. The format is biochemical. Conditions: hPDE7A1; read-out: PDE 7A (expressed as pIC50) (converted). The method in brief: as §1
Chain of other members of the PDE family (Homo sapiens, UniProt Q13946) (Q13946 whole entry): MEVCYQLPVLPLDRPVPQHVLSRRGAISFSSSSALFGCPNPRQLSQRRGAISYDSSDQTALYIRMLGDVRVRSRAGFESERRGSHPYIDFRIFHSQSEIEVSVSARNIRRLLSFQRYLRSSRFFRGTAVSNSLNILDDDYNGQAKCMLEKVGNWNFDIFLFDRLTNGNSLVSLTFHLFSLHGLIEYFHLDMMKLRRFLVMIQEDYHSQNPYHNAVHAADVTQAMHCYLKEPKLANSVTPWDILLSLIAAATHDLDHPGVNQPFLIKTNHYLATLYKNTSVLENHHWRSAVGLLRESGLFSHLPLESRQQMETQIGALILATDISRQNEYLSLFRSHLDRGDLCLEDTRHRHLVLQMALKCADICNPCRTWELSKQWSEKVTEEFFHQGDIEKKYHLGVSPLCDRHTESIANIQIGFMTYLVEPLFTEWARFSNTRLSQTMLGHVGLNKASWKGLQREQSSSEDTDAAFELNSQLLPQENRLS
In assay [4] the target is other members of the PDE family (Homo sapiens, UniProt Q14432). Described as above. In kind it is biochemical. Conditions: hPDE3A; read-out: PDE 3A (expressed as pIC50) (converted). The method in brief:
as §1

Assay [5] addresses other members of the PDE family (Homo sapiens, UniProt Q9HCR9). The description is as above. Conditions: hPDE11A4; read-out: PDE 11A4 (expressed as pIC50) (converted). The format is biochemical. The method in brief: as §1
For assay [6], the system named is PCP-induced hyperlocomotion in rats. Briefly: PCP-induced hyperlocomotion in rats. The format is in vivo. Conditions: Rattus norvegicus. Here is the method: Motor activity [horizontal activity (locomotion) and vertical activity (rearing)] was recorded in male Wiga rats (body weight: 175-275 g; housed overnight in groups of 7 rats) using microprocessor-based activity monitors (MED Associates; length×width×height: 43.2×43.2×41.5 cm) over a period of 30 min. The resolution of the system was set at 100 msec. Total distance was defined as the distance traveled, measured by changes in the number or location of interrupted xy-beams (located in two arrays of 32 infrared light beams (1.25 cm apart) perpendicular to each other in a horizontal plane 2.0 cm above the floor). Vertical activity was defined as the number of periods of continuous breaks reported by an infrared array of 32 light beams in a horizontal plane 13 cm above the floor. The intensity of the light within the activity meters (measured in the centre at floor level) ranged between 110 and 130 LUX.
Male Wiga rats (200 to 260 g) were pretreated with test compound or solvent (10 ml/kg, s.c.) and placed in individual cages. At a predefined interval thereafter (60 min.), the rats were challenged with PCP (1.25 mg/kg, i.v.) and motor activity was measured over a period of 30 min starting immediately after the PCP challenge. […]

Chain of other members of the PDE family (Homo sapiens, UniProt Q9HCR9) (Q9HCR9 whole entry): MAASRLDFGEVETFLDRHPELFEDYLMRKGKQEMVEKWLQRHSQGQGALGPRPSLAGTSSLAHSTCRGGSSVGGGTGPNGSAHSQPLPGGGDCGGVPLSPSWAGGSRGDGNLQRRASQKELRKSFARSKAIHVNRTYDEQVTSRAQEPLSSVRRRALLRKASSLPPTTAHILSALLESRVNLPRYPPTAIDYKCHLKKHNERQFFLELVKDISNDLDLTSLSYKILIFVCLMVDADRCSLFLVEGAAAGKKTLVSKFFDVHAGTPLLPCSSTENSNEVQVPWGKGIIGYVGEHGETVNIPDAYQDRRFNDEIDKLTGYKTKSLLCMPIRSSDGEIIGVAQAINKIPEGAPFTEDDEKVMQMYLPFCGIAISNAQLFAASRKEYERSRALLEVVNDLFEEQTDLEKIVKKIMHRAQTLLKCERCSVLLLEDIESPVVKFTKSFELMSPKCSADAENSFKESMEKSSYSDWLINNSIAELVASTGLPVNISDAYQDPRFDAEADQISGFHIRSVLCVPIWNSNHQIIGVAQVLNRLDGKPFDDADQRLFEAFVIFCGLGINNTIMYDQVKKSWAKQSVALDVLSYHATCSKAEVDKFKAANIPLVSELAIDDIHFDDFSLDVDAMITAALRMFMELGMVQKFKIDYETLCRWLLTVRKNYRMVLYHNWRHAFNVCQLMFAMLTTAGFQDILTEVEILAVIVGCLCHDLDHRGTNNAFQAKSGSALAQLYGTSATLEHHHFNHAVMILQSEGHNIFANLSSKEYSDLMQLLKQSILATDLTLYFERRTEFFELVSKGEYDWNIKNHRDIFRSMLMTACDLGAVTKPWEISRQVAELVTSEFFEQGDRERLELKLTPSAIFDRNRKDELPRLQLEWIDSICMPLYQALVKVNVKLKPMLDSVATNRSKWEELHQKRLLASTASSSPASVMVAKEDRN
Chain of other members of the PDE family (Homo sapiens, UniProt O76083) (O76083 whole entry): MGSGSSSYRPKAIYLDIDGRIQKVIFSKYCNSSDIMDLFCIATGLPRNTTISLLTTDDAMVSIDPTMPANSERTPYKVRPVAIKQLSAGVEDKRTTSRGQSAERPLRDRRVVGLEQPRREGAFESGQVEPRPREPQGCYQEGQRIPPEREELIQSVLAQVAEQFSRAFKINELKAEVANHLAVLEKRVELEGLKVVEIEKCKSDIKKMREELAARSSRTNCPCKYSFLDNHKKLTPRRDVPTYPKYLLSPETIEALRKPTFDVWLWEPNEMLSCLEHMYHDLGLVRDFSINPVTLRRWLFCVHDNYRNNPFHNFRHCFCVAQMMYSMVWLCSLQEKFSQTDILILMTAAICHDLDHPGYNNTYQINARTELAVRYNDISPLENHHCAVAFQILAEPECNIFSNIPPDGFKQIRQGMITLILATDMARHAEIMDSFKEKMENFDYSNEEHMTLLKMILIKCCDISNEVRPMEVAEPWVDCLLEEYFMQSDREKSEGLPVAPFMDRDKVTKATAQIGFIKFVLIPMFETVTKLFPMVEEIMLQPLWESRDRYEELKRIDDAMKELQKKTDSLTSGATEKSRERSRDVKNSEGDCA
Chain of other members of the PDE family (Homo sapiens, UniProt Q14432) (Q14432 whole entry): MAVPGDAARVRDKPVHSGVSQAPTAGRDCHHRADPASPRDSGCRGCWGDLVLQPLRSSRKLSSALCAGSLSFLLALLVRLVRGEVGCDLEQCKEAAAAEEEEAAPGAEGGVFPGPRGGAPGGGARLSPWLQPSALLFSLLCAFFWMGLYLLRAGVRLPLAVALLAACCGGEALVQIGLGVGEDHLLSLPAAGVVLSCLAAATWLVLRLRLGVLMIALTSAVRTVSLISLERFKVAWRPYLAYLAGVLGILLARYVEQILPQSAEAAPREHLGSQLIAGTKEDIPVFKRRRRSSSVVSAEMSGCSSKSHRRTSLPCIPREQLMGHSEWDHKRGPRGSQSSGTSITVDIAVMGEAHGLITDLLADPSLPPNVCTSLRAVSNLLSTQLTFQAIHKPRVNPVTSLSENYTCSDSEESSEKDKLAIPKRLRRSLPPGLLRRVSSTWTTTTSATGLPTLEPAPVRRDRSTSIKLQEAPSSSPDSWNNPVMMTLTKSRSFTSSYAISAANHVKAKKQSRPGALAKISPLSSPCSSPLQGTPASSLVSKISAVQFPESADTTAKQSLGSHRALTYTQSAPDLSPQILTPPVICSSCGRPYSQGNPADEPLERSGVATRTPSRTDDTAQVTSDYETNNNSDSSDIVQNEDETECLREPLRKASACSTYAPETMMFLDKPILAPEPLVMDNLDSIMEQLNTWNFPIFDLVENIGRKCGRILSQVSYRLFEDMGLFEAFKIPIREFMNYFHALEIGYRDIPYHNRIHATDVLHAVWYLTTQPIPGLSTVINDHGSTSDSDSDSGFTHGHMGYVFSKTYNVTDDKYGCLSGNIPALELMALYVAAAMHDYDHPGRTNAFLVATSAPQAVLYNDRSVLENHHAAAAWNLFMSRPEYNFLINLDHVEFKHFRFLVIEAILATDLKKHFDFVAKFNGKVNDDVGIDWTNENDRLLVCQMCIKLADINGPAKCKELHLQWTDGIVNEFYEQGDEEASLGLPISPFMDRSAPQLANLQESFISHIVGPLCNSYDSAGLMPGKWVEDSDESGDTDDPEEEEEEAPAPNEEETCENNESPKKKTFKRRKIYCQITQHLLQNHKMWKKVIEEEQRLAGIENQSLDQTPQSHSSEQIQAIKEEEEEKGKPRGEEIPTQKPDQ
Chain of other members of the PDE family (Homo sapiens, UniProt O00408) (O00408 whole entry, canonical isoform): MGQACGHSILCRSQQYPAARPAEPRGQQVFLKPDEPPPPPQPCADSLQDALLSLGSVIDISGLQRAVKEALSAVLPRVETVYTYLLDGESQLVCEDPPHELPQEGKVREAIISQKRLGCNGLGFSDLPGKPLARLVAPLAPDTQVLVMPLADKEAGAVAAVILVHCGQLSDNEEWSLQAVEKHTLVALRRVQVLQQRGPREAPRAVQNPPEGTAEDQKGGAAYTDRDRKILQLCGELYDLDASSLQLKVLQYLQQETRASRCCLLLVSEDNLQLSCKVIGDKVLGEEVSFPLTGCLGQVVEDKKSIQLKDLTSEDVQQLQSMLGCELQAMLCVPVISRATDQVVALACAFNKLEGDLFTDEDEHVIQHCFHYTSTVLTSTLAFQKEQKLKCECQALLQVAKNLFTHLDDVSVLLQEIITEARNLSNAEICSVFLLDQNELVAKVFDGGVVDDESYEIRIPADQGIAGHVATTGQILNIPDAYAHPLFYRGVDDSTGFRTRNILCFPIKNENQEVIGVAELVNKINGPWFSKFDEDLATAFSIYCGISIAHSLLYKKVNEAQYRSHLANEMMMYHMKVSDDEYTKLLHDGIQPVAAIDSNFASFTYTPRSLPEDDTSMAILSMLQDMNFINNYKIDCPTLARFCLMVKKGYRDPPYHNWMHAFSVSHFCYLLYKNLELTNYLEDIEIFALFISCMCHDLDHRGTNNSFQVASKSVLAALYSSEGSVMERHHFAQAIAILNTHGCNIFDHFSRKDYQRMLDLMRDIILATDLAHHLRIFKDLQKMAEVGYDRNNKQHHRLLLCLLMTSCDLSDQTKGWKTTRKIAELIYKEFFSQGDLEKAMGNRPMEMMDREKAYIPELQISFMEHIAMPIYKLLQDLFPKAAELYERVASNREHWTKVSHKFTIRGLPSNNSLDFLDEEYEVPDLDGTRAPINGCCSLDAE

For the compound `COCCc1ccc(-c2c(C)nc3c(N4CCOCC4)ccnn23)cn1` [compound 1, 3-[6-(2-methoxyethyl)-3-pyridinyl]-2-methyl-8-(4-morpholinyl)-imidazo[1,2-b]pyridazine], the IC50 in assay [1] was 39.8 µM; in assay [2] it was > 100 µM; in assay [3] it was 69.2 µM; in assay [4] it was 97.7 µM; in assay [5] it was 74.1 µM. Further, the ED50 in assay [6] stood at 2 mg/kg.

Consider `COCCOc1ccc(-c2c(C)nc3c(-c4ccncc4)ccnn23)cn1` [compound 21, 3-[6-(2-methoxyethoxy)-3-pyridinyl]-2-methyl-8-(4-pyridinyl)-imidazo[1,2-b]pyridazine], for which the IC50 is 47.9 µM in assay [1]; > 50.1 µM in assay [2]; > 50.1 µM in assay [3]; > 50.1 µM in assay [4]; > 50.1 µM in assay [5]. This compound had an ED50 in assay [6] of 6.1 mg/kg.
